In publication PMC9977887, “Crocodile defensin (CpoBD13) antifungal activity via pH-dependent phospholipid targeting and membrane disruption” (Nature Communications, 2023):
Where no end group is shown, it is not given here.

Columns and labels:
[1] = Calcein-encapsulated liposome lysis assay; assay type: biochemical; details: 20 µM
Procedure: Liposomes were prepared using natural chicken egg L-α-phophatidylcholine and L-α-phosphatidic acid dissolved in chloroform (Avanti Polar Lipids), and liposome pulldowns (at pH 7.4) and calcein-encapsulated liposome lysis assays were performed as previously described. For liposome pulldowns performed at pH 5.5, the same protocol was used with minor variations. The desiccated lipid films were resuspended in 20 mM MES pH 7.4 and were washed in the same buffer during the centrifugation process. After the final wash step, the liposome pellets were resuspended in 20 mM MES pH 5.5 and incubated with CpoBD13 or mutants thereof (also prepared in the same acidic buffer).

[2] = system: C. albicans ATCC 10231; test: Fungal growth inhibition assay, salt tolerance (NaCl); assay type: cell-based, Candida albicans; details: NaCl concentrations of 100 mM; 24 h
Procedure: For fungal growth assays, overnight cultures of C. albicans ATCC 10231 cells (yeast peptone dextrose broth, 30°C, shaking at 160 rpm) were pelleted (2000 g, 5 min), washed once in 0.5× potato dextrose broth (BD Biosciences, Franklin Lakes, NJ) and finally resuspended in the same media. Cells were seeded onto a 96-well plate (400 cells, 50 µL) and treated with an equal volume of varying concentrations of defensin in 0.5× potato dextrose broth. After incubating the samples (24 h, 30 °C), the plates were shaken to distribute the cells and growth was determined by performing a 9-well scan (600 nm) using a Spectramax M5e microplate reader (Molecular Devices, San Jose, CA). For assays testing defensin salt tolerance, C. albicans cells were instead resuspended in 1x potato dextrose broth and treated with an equal volume of CpoBD13 + NaCl solution at their intended concentrations. Propidium iodide (PI) uptake assays were performed by preparing the cells as per the standard growth inhibition assay however they were instead seeded onto a U-bottom 96-well plate (50,000 cells, 25 µL). […] For PI uptake experiments performed at a specific pH, the same method was followed with the exception that cells were resuspended in 1× potato dextrose broth while defensin titrations were diluted in 40 mM MES buffer at the intended pH. An example PI uptake gating strategy is presented in Supplementary Fig. 1d.

[3] = system: AHDF cells
From the text: Human epithelial cervical cancer (HeLa, ATCC, CCL-2), prostate cancer (PC3, ATCC, CRL-1435) and histiocytic lymphoma (U937, ATCC, CRL-1593.2) cells were obtained from the American Type Culture Collection (Gaithersburg, Maryland) and cultured in RPMI-1640 medium (Thermo Fisher Scientific, Waltham, MA) supplemented with 5–10% (v/v) foetal bovine serum (FBS), 100 U/mL penicillin and 100 U/mL streptomycin (Invitrogen, Carlsbad, CA). Adult human dermal fibroblasts (AHDF, Lonza, CC-2511) cells were obtained from Lonza (Basel, Switzerland) and cultured in Dulbecco’s Modified Eagle Medium (DMEM) (Thermo Fisher Scientific) supplemented with 10% (v/v) FBS, 100 U/mL penicillin and 100 U/mL streptomycin. Human umbilical vein epithelial (HUVEC, Lonza, CC-2519) cells were obtained from Lonza and cultured in EBM-2 medium supplemented with EGM-2 SingleQuots (Lonza). All cell lines were maintained at 37 °C in a humidified incubator with 5% CO2.
Cell viability assays were performed using MTT/MTS as previously described[8].

Question: Which results are given for “CpoBD13: saltwater crocodile β-defensin 13, histidine-rich, three disulphide bonds, recombinantly expressed in Pichia pastoris (NGSYYSTLQCRNNHGHCRRLCFHGEQWIGNCNGRHQHCCK; disulfide (positions not given here); also: three disulphide bonds, pairings not given here)”?
Answer: Lysis (%) ([1]; PC:PA, 28 min, replicate 2): 65.4475%; Lysis (%) ([1]; PC:PA, 28 min, replicate 3): 64.7127%; Lysis (%) ([1]; PC:PA, 30 min, replicate 1): 67.3935%; Lysis (%) ([1]; PC:PA, 30 min, replicate 2): 66.6111%; Lysis (%) ([1]; PC:PA, 30 min, replicate 3): 65.2527%; Lysis (%) ([1]; PC, 0 min, replicate 1): 15.1234%; Lysis (%) ([1]; PC, 0 min, replicate 2): 15.1242%; Lysis (%) ([1]; PC, 0 min, replicate 3): 13.8859%; Lysis (%) ([1]; PC, 2 min, replicate 1): 39.0447%; Lysis (%) ([1]; PC, 2 min, replicate 2): 32.4816%; Lysis (%) ([1]; PC, 2 min, replicate 3): 30.5639%; Lysis (%) ([1]; PC, 4 min, replicate 1): 45.2997%; Lysis (%) ([1]; PC, 4 min, replicate 2): 38.3127%; Lysis (%) ([1]; PC, 4 min, replicate 3): 36.68%; Lysis (%) ([1]; PC, 6 min, replicate 1): 48.9071%; Lysis (%) ([1]; PC, 6 min, replicate 2): 41.9281%; Lysis (%) ([1]; PC, 6 min, replicate 3): 41.2305%; Lysis (%) ([1]; PC, 8 min, replicate 1): 49.7649%; Lysis (%) ([1]; PC, 8 min, replicate 2): 44.0474%; Lysis (%) ([1]; PC, 8 min, replicate 3): 43.6445%; Lysis (%) ([1]; PC, 10 min, replicate 1): 51.7674%; Lysis (%) ([1]; PC, 10 min, replicate 2): 44.7293%; Lysis (%) ([1]; PC, 10 min, replicate 3): 45.2138%; Lysis (%) ([1]; PC, 12 min, replicate 1): 52.4795%; Lysis (%) ([1]; PC, 12 min, replicate 2): 46.5217%; Lysis (%) ([1]; PC, 12 min, replicate 3): 46.4513%; Lysis (%) ([1]; PC, 14 min, replicate 1): 52.8236%; Lysis (%) ([1]; PC, 14 min, replicate 2): 47.6803%; Lysis (%) ([1]; PC, 14 min, replicate 3): 47.9678%; Lysis (%) ([1]; PC, 16 min, replicate 1): 54.9403%; Lysis (%) ([1]; PC, 16 min, replicate 2): 49.0986%; Lysis (%) ([1]; PC, 16 min, replicate 3): 49.0311%; Lysis (%) ([1]; PC, 18 min, replicate 1): 53.0929%; Lysis (%) ([1]; PC, 18 min, replicate 2): 50.179%; Lysis (%) ([1]; PC, 18 min, replicate 3): 50.039%; Lysis (%) ([1]; PC, 20 min, replicate 1): 53.041%; Lysis (%) ([1]; PC, 20 min, replicate 2): 50.8527%; Lysis (%) ([1]; PC, 20 min, replicate 3): 51.0255%; Lysis (%) ([1]; PC, 22 min, replicate 1): 54.0904%; Lysis (%) ([1]; PC, 22 min, replicate 2): 52.2587%; Lysis (%) ([1]; PC, 22 min, replicate 3): 51.6328%; Lysis (%) ([1]; PC, 24 min, replicate 1): 54.3794%; Lysis (%) ([1]; PC, 24 min, replicate 2): 53.0954%; Lysis (%) ([1]; PC, 24 min, replicate 3): 52.0331%; Lysis (%) ([1]; PC, 26 min, replicate 1): 55.6275%; Lysis (%) ([1]; PC, 26 min, replicate 2): 53.8088%; Lysis (%) ([1]; PC, 26 min, replicate 3): 52.9179%; Lysis (%) ([1]; PC, 28 min, replicate 1): 53.4363%; Lysis (%) ([1]; PC, 28 min, replicate 2): 55.2629%; Lysis (%) ([1]; PC, 28 min, replicate 3): 53.0065%; Lysis (%) ([1]; PC, 30 min, replicate 1): 54.3884%; Lysis (%) ([1]; PC, 30 min, replicate 2): 55.3559%; Lysis (%) ([1]; PC, 30 min, replicate 3): 54.0992%; antifungal activity in NaCl [2]: retained antifungal activity; effect on cell viability [3]: did not affect the viability
